The pKd is −log10 of the Kd, conventionally taken in molar units. Read a high pKd as a low Kd.

The assay concerns the target T1, FtsZ (Filamenting temperature-sensitive mutant Z) (Enterococcus faecalis, UniProt O08439).
T1 construct: recombinant E. faecalis FtsZ protein (FTZ04-B)
The experiment in a line: SPR (Biacore T200, FtsZ immobilized on CM5 chip); also GTPase inhibition of E. faecalis FtsZ, IC50 […]. The format is binding.

pKd: −log10 of the molar value.

T1 sequence (O08439 whole entry, change not shown): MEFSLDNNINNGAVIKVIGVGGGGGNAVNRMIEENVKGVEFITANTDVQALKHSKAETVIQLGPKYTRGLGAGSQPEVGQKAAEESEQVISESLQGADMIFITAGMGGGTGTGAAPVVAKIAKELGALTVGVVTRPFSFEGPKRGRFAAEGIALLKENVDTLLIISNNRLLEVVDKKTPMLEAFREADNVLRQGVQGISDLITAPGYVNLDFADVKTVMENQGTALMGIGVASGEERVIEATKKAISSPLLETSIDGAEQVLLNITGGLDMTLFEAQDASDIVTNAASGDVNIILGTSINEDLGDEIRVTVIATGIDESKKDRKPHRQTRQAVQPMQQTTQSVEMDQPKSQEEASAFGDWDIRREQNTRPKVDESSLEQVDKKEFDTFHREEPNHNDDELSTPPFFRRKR

Molecule `CC1=C(O)C(=O)C=C2C1=CC=C1[C@@]2(C)CC[C@@]2(C)[C@@H]3C[C@](C)(C(=O)O)CC[C@]3(C)CC[C@]12C` [CEL, celastrol] showed a pKd of 5.61.
